Data: patent US20240051939A1, “BENZOPYRAZOLE INHIBITORS OF SARM1” (Disarm Therapeutics, Inc., priority 2020, published 2024)

Target: SARM1 (Homo sapiens (Human), UniProt Q6SZW1)
Test: ARM-SAM-TIR SARM1 IC50 assay (NADase activity, NAD+ cleavage)
Type: biochemical
Settings: ARM-SAM-TIR lysate 5 μg/mL, 2 h pre-incubation, 5 μM NAD+, RapidFire MS readout
Experimental: This Example describes an assay of ARM-SAM-TIR NADase activity and use of this assay to measure the efficacy of compounds of Formula I to block SARM1 mediated NAD+ cleavage. This assay was optimized in such a way as to characterize the efficacy of the compounds in Formula I to inhibit SARM1 activity and to calculate an IC50 value for each compound. This assay makes use of full length SARM1, which encompasses the ARM, SAM and TIR domains.
NRK1-HEK293T cells were seeded onto 150 cm^2 plates at 20×10^6 cells per plate. The next day, the cells were transfected with 15 μg ARM-SAM-TIR expression plasmid, SEQ ID NO: 1.
The cultures were supplemented with 1 mM NR at time of transfection to minimize toxicity from ARM-SAM-TIR overexpression. […] Protein concentration was determined by the Bicinchoninic (BCA) method and used to normalize lysate concentrations.
The enzymatic assay was performed in a 384-well polypropylene plate in Dulbecco's PBS buffer in a final assay volume of 20 μL. […] The NAD+ and ADPR concentrations were analyzed by a RapidFire High Throughput Mass Spectrometry System (Agilent Technologies, Santa Clara, CA) using an API4000 triple quadrupole mass spectrometer (AB Sciex Framingham, MA).

SARM1, sequence (Q6SZW1 other isoform, or with tags, fused parts or gaps): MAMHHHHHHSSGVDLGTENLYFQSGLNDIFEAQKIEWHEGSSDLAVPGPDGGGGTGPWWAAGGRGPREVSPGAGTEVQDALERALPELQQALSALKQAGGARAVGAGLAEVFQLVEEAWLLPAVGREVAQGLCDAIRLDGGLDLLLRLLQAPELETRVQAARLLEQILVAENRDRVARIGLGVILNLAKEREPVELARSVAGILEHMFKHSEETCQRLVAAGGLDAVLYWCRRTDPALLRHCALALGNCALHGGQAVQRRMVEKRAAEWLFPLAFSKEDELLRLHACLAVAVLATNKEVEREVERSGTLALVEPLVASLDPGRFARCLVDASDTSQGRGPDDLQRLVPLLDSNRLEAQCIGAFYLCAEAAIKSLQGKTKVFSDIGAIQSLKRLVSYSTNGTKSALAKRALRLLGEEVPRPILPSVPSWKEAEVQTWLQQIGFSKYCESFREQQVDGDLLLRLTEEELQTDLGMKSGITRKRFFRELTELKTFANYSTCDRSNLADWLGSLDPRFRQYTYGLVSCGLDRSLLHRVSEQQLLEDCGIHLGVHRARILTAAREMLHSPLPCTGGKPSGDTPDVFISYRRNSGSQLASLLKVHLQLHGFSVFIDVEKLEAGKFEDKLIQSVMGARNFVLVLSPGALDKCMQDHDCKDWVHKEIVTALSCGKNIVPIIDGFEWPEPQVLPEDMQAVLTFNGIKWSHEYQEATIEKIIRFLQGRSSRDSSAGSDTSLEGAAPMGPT

Structure (SMILES)	IC50
Clc1ccc(CCc2n[nH]c3cc(-c4ccncc4)ccc23)cn1 [Compound I-2]	101 to 500 nM
Clc1ccc(CCc2n[nH]c3cc(-c4ccncc4)ccc23)cc1 [Compound I-1]	101 to 500 nM
